Laboratory results reported in patent publication US20050074834A1 (priority 2001, published 2005).
Entries after “also recorded” stand apart in the source; their conditions may differ. Counter-ions that a name gives are not always drawn.

Columns and labels:
chromatophores [1] = tested on: chromatophores
[2] = tested on: chromatophore/neuronal cell; format: cell-based
[3] = tested on: chromatophore/fungal cell; format: cell-based
chromatophores [4] = format: cell-based
chromatophores [5] = assay: cells; conditions: read-out: Threshold concentration PPM
[6] = tested on: chromatophore/protozoal cell; format: cell-based
xanthophores = format: cell-based
fish chromatophores = format: cell-based
erythrophores = format: cell-based
iridophores = format: cell-based
melanophores = format: cell-based
[7] = tested on: chromatophore/bacterial cell; format: cell-based
[8] = tested on: Hemichromis bimaculatus chromatophores; format: cell-based
Betta chromatophores [9] = format: cell-based, Betta splendens
Betta chromatophores [10] = format: cell-based
[11] = tested on: Betta splendens chromatophores; format: cell-based
[12] = tested on: Betta splendens erythrophores; format: cell-based
ryanodine receptors = conditions: cited from earlier work

Nc1ncnc2c1ncn2[C@@H]1O[C@H](COP(=O)(O)OP(=O)(O)OP(=O)(O)O)[C@@H](O)[C@H]1O [ATP]
Threshold concentration PPM (chromatophores [1]): X (key: X=1 to 100 PPM; XX=100 to 1000 PPM)
2-Cell Cytosensor (second cell type included) [2]: Erythr. Aggr.

C[C@@H]1[C@H](O)[C@@H](C)/C=C/C=C/C=C/C=C/C=C/C=C/C=C/[C@H](O[C@@H]2O[C@H](C)[C@@H](O)[C@H](N)[C@@H]2O)C[C@@H]2O[C@](O)(C[C@@H](O)C[C@@H](O)[C@H](O)CC[C@@H](O)C[C@@H](O)CC(=O)O[C@H]1C)C[C@H](O)[C@H]2C(=O)O [Amphotericin B]
2-Cell Cytosensor (second cell type included) [3]: Normal
Response time Hr. (chromatophores [1]): XX (key: X=1-6 hr; XX=6-24 hr)
Threshold concentration PPM (chromatophores [1]): X (key: X=1 to 100 PPM; XX=100 to 1000 PPM)

Cn1c(=O)c2c(ncn2C)n(C)c1=O [Caffeine]
concentration printed for an analyte to which chromatophores respond (chromatophores [4]): 100 µM
Threshold concentration PPB (chromatophores [1]): XXX

C[N+](C)(C)CCOC(N)=O [Carbachol]
minimal effective concentration (chromatophores [5]): 1 to 100 µg/mL
2-Cell Cytosensor (second cell type included) [2]: Erythr. Aggr.

CCN(CC)CCCC(C)Nc1ccnc2cc(Cl)ccc12 (centres unmarked) [Chloroquine]
2-Cell Cytosensor (second cell type included) [6]: Normal
Response time Hr. (chromatophores [1]): XX (key: X=1-6 hr; XX=6-24 hr)
minimal effective concentration (chromatophores [5]): 100 to 1000 µg/mL

Clc1cccc(Cl)c1N=C1NCCN1 [Clonidine]
Chromatophore response Xanthophores (xanthophores): Disp.
Threshold concentration PPB (chromatophores [1]): XX (key: X=1 to 100 PPB; XX=100 to 1000 PPB)
chromatophore response after forskolin and PMSF (fish chromatophores): no aggregation occurred
chromatophore response in the absence of forskolin (fish chromatophores): aggregate; also recorded: aggregation
chromatophore response in the presence of forskolin (fish chromatophores): unresponsive; also recorded: not detectable

C=C[C@@]1(C)CC(=O)[C@]2(O)[C@@]3(C)[C@@H](O)CCC(C)(C)[C@@H]3[C@H](O)[C@H](OC(C)=O)[C@@]2(C)O1 [Forskolin]
concentration printed for an analyte to which chromatophores respond (chromatophores [4]): 0.01 µM
Threshold concentration PPB (chromatophores [1]): XX (key: X=1 to 100 PPB; XX=100 to 1000 PPB)

Cc1ncc([N+](=O)[O-])n1CCO [Metronidazole]
2-Cell Cytosensor (second cell type included) [6]: Normal
Response time Hr. (chromatophores [1]): XX (key: X=1-6 hr; XX=6-24 hr)
minimal effective concentration (chromatophores [5]): 1 to 100 µg/mL

COC(=O)C=C(C)OP(=O)(OC)OC [Mevinphos]
Response time Hr. (chromatophores [1]): X (key: X=1-6 hr; XX=6-24 hr)
Chromatophore response Erythrophores (erythrophores): Imp. (FS)
Chromatophore response Iridophores (iridophores): Hue change, then Imp.
Chromatophore response Melanophores (melanophores): Imp.

CCn1cc(C(=O)O)c(=O)c2ccc(C)nc21 [Nalidixic acid]
2-Cell Cytosensor (second cell type included) [7]: Normal
Response time Hr. (chromatophores [1]): XX (key: X=1-6 hr; XX=6-24 hr)
minimal effective concentration (chromatophores [5]): 1 to 100 µg/mL

c1ccc2c(CC3=NCCN3)cccc2c1 [Naphazoline]
Chromatophore response Xanthophores (xanthophores): Disp.
Threshold concentration PPB (chromatophores [1]): XX (key: X=1 to 100 PPB; XX=100 to 1000 PPB)

NC[C@H](O)c1ccc(O)c(O)c1 [Norepinephrine]
change of appearance of Hemichromis bimaculatus chromatophores [8]: change the appearance
response time of the cytosensor (Betta chromatophores [9]): less than 1 minute
Chromatophore response Xanthophores (xanthophores): Disp.
appearance of Betta chromatophores after exposure (Betta chromatophores [10]): aggregation of chromatophore pigment is apparent
Chromatophore response Iridophores (iridophores): Hue changes (FS)

Cc1cc(C(C)(C)C)c(O)c(C)c1CC1=NCCN1 [Oxymetazoline]
Chromatophore response Xanthophores (xanthophores): Disp.
Threshold concentration PPB (chromatophores [1]): XX (key: X=1 to 100 PPB; XX=100 to 1000 PPB)

CCOP(=O)(OCC)Oc1ccc([N+](=O)[O-])cc1 [Paraoxon]
Chromatophore response Erythrophores (erythrophores): Aggr. (FS)
Chromatophore response Iridophores (iridophores): Hue changes (FS)
Chromatophore response Melanophores (melanophores): A/I (FS)

C=C[C@H]1C[N@@]2CC[C@H]1C[C@H]2[C@H](O)c1ccnc2ccc(OC)cc12 [Quinine sulfate]
2-Cell Cytosensor (second cell type included) [6]: Normal
Response time Hr. (chromatophores [1]): XX (key: X=1-6 hr; XX=6-24 hr)
minimal effective concentration (chromatophores [5]): 100 to 1000 µg/mL

[H]/N=C(/N)N[C@H]1[C@H](O)[C@@H](O)[C@H](O[C@@H]2O[C@@H](C)[C@](O)(C=O)[C@H]2O[C@@H]2O[C@@H](CO)[C@H](O)[C@@H](O)[C@@H]2NC)[C@@H](N/C(N)=N\[H])[C@@H]1O [Streptomycin]
2-Cell Cytosensor (second cell type included) [7]: Normal
Response time Hr. (chromatophores [1]): XX (key: X=1-6 hr; XX=6-24 hr)
minimal effective concentration (chromatophores [5]): 1 to 100 µg/mL

c1ccc2c(c1)CCCC2C1=NCCN1 (centres unmarked) [Tetrahydrozoline]
Chromatophore response Xanthophores (xanthophores): Disp.
Threshold concentration PPB (chromatophores [1]): XX (key: X=1 to 100 PPB; XX=100 to 1000 PPB)

Cholera toxin
change of appearance of Hemichromis bimaculatus chromatophores [8]: change the appearance
erythrophore response upon norepinephrine exposure [8]: impaired
melanophore response upon challenge by norepinephrine [8]: unimpaired
concentration at which inhibition of norepinephrine induced pigment aggregation is detected [11]: ≥ 1 ng/mL
effect on Betta splendens chromatophores [11]: causes hyperdispersion
Response time Hr. (chromatophores [1]): X (key: X=1-6 hr; XX=6-24 hr)
Threshold concentration PPM (chromatophores [1]): X (key: X=1 to 100 PPM; XX=100 to 1000 PPM)
Chromatophore response Erythrophores (erythrophores): Imp.
chromatophore appearance after exposure (Betta chromatophores [10]): Pigment aggregation is evident
pigment aggregation in response to norepinephrine after pre-incubation with CTX (Betta chromatophores [10]): impaired pigment aggregation in response to NE
selective sensitivity of color classes of chromatophores (Betta chromatophores [10]): selective sensitivity of erythrophores to cholera toxin

Penicillin
2-Cell Cytosensor (second cell type included) [7]: Normal
Response time Hr. (chromatophores [1]): XX (key: X=1-6 hr; XX=6-24 hr)
Threshold concentration PPM (chromatophores [1]): X (key: X=1 to 100 PPM; XX=100 to 1000 PPM)

Ryanodine
Morphology Effect: Aggregation [12]: Yes and No
Morphology Effect: Dispersion [12]: No
Threshold concentration PPB (chromatophores [1]): XX (key: X=1 to 100 PPB; XX=100 to 1000 PPB)
Chromatophore response Erythrophores (erythrophores): Aggr.
concentrations at which ryanodine acts as an antagonist of the same receptors (ryanodine receptors): > 1 µM
